Assay results as given in patent US8552031B2, “3-ethylidenehydrazino substituted heterocyclic compounds as thrombopoietin receptor activators” (Nissan Chemical Industries, Ltd., priority 2004, dated 2013).

The compounds below were run against T1, human TPO receptor (c-mp1) (Homo sapiens, UniProt P40238) (assay: Stimulation of proliferation of TPO-dependent cell line UT7/EPO-mpl (WST-8)). Conditions: FIG. 1; 4 days incubation, WST-8, absorbance at 450 nm.
T1 construct: expressed in transfected cells
T1 sequence (P40238 26-635): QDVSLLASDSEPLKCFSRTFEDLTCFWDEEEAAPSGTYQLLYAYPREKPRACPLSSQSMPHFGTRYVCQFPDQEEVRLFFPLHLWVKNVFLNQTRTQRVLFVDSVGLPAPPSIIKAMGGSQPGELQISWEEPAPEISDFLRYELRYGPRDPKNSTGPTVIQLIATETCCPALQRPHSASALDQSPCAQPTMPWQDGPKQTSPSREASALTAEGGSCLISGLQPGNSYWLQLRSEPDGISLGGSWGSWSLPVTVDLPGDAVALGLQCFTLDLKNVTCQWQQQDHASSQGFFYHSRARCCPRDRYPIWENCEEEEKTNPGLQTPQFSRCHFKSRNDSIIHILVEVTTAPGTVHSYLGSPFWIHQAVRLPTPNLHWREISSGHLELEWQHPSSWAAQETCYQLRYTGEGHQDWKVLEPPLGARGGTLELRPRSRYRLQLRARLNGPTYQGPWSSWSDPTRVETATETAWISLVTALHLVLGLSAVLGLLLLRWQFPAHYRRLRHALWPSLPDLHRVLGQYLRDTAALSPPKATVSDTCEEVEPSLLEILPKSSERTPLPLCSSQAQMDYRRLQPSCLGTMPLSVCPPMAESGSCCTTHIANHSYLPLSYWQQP
Type: cell-based
Procedure: The reactivity of the compound of Synthetic Example 4 of the present invention with thrombopoietin (TPO) receptor was assayed using a human leukemic cell line, UT7/EPO-mpl.
(§1) UT7/EPO-mpl is a stable transformed cell line obtained by introducing into human leukemic cell line UT7/EPO a vector that induces expression of human TPO receptor (c-mp1) under control of cytomegalovirus immediate-early promoter by the method of Takatoku et al. (J. Biol. Chem., 272:7259-7263 (1997)). […] These two cell lines were subcultured in Iscove's modified Dulbecco's medium (IMDM; GIBCO) containing 10% fetal bovine serum (FBS; Thermo Electron or BioWest) using a CO2 incubator (5% CO2, 37° C.).
(§2) The subcultured cells described above were washed twice with phosphate buffered saline (PBS) and suspended in IMDM containing 10% FBS at a cell density of 6×10^4 cells/ml. The cell suspension was transferred to a 96-well tissue culture plate (CORNING) in 100-μl aliquots. Then either TPO (Pepro Tech EC) or the compound of Synthetic Example 4 dissolved in dimethyl sulfoxide (DMSO) was diluted 83-fold with IMDM containing 10% FBS and added to the aforementioned cell suspension in 20-μl aliquots. The cell suspension was incubated in a CO2 incubator (5% CO2, 37° C.) for 4 days. Cell proliferation was assayed using WST-8 reagent (Kishida Chemical Co., Ltd.) according to instructions by the manufacturer. A 10-μl aliquot of 5 mM WST-8 reagent solution was added to each well of the tissue culture plate, and the plate was incubated at 37° C. for 4 h. The formazan pigment generated was detected by measuring the absorbance at 450 nm with a 96-well microplate reader (Nihon Molecular Devices, Spectramax 190).
The compounds of the following Synthetic Examples were tested according to the method of Assay Example 1 to determine the concentration of each compound that yields a growth rate corresponding to 50% of the growth of human leukemic cell line UT-7/EPO-mpl observed in the presence of 10 ng/ml TPO (EC50).

| Structure (SMILES) | proliferation of TPO-responsive UT7/EPO-mpl cells |
| --- | --- |
| CC(=NNC(=S)NCC(=O)O)c1csc(-c2ccc(Cl)c(Cl)c2)c1O [Synthetic Example 4, 2-[(2-{1-[5-(3,4-dichlorophenyl)-4-hydroxythiophen-3-yl]-etylidene}-hydrazinocarbonothioyl)amino]acetic acid] | stimulated by the compound of Synthetic Example 4 in a concentration-dependent manner |

Same assay, conditions: concentration that yields a growth rate corresponding to 50% of the growth of UT-7/EPO-mpl observed in the presence of 10 ng/ml TPO; 4 days incubation

| Structure (SMILES) | EC50 |
| --- | --- |
| CC(=NNC(=S)NCC(=O)O)c1csc(-c2ccc(Cl)c(Cl)c2)c1O [Synthetic Example 4, 2-[(2-{1-[5-(3,4-dichlorophenyl)-4-hydroxythiophen-3-yl]-etylidene}-hydrazinocarbonothioyl)amino]acetic acid] | 5.6 ng/mL |

Same assay, conditions: concentration that yields a growth rate corresponding to 50% of the growth of UT-7/EPO-mpl observed in the presence of 10 ng/ml TPO; 4 days incubation; read-out: EC50 (converted)

| Structure (SMILES) | EC50 |
| --- | --- |
| COC(=O)C1CCN(C(=S)NN=C(C)c2csc(-c3ccc(Cl)c(Cl)c3)c2O)CC1 [Synthetic Example 1, methyl 1-{1-[5-(3,4-dichlorophenyl)-4-hydroxythiophen-3-yl]-ethylidene-hydrazinothiocarbonyl}-piperidine-4-carboxylate] | 63.7 nM |
| CC(=NNC(=S)N1CCC(C(=O)O)CC1)c1csc(-c2ccc(Cl)c(Cl)c2)c1O [Synthetic Example 2, 1-{1-[5-(3,4-dichlorophenyl)-4-hydroxythiophen-3-yl]-ethylidene-hydrazinothiocarbonyl}-piperidine-4-carboxylic acid] | 6.77 nM |
| COC(=O)CNC(=S)NN=C(C)c1csc(-c2ccc(Cl)c(Cl)c2)c1O [Synthetic Example 3, methyl 2-[(2-{1-[5-(3,4-dichlorophenyl)-4-hydroxythiophen-3-yl]-ethylidene}-hydrazinocarbonothioyl)amino]acetate] | 55.5 nM |
| COC(=O)CCNC(=S)NN=C(C)c1csc(-c2ccc(Cl)c(Cl)c2)c1O [Synthetic Example 5, methyl 3-[(2-{1-[5-(3,4-dichlorophenyl)-4-hydroxythiophen-3-yl]-ethylidene}-hydrazinocarbonothioyl)amino]propionate] | 67.2 nM |
| CC(=NNC(=S)NCCC(=O)O)c1csc(-c2ccc(Cl)c(Cl)c2)c1O [Synthetic Example 6, 3-[(2-{1-[5-(3,4-dichlorophenyl)-4-hydroxythiophen-3-yl]-ethylidene}-hydrazinocarbonothioyl)amino]propionic acid] | 32.4 nM |
| COCCNC(=S)NN=C(C)c1csc(-c2ccc(Cl)c(Cl)c2)c1O [Synthetic Example 7, 1-(2-{1-[5-(3,4-dichlorophenyl)-4-hydroxythiophen-3-yl]-ethylidene}-hydrazinocarbonothioyl)amino-2-methoxyethane] | 66.9 nM |
| COC(=O)C1CCN(C(=S)NN=C(C)c2csc(-c3ccc(Br)cc3)c2O)CC1 [Synthetic Example 8, methyl 1-{1-[5-(4-bromophenyl)-4-hydroxy-thiophen-3-yl]-ethylidene-hydrazinothiocarbonyl}-piperidine-4-carboxylate] | 50.4 nM |
| CC(=NNC(=S)N1CCC(C(=O)O)CC1)c1csc(-c2ccc(Br)cc2)c1O [Synthetic Example 9, 1-{1-[5-(4-bromophenyl)-4-hydroxy-thiophen-3-yl]-ethylidene-hydrazinothiocarbonyl}-piperidin-4-carboxylic acid] | 4.77 nM |
| CC(=NNC(=S)N1CCC(C(=O)O)CC1)c1csc(-c2ccc(C(F)(F)F)cc2)c1O [Synthetic Example 10, 1-{1-[4-hydroxy-5-(4-trifluoromethylphenyl)-thiophen-3-yl]-ethylidene-hydrazinothiocarbonyl}-piperidine-4-carboxylic acid] | 5.73 nM |
| CC(=NNC(=S)N1CCC(C(=O)O)CC1)c1csc(-c2ccc(OC(F)(F)F)cc2)c1O [Synthetic Example 11, 1-{1-[5-(4-trifluoromethoxyphenyl)-4-hydroxythiophen-3-yl]-ethylidene-hydrazinothiocarbonyl}-piperidine-4-carboxylic acid] | 5.95 nM |
| CC(=NNC(=S)N1CCC(C(=O)O)CC1)c1csc(-c2ccc(Cl)cc2)c1O [Synthetic Example 12, 1-{1-[5-(4-chlorophenyl)-4-hydroxy-thiophen-3-yl]-ethilidene-hydrazinothiocarbonyl}-piperidine-4-carboxylic acid] | 4.79 nM |
| CC(=NNC(=S)N1CCC(C(=O)O)CC1)c1csc(-c2ccc(C)c(C)c2)c1O [Synthetic Example 13, 1-{1-[5-(3,4-dimethylphenyl)-4-hydroxythiophen-3-yl]-ethylidene-hydrazinothiocarbonyl}-piperidine-4-carboxylic acid] | 6.02 nM |
| CC(=NNC(=S)N1CCC(C(=O)O)CC1)c1csc(-c2ccc(C(C)(C)C)cc2)c1O [Synthetic Example 14, 1-{1-[5-(4-t-butylphenyl)-4-hydroxy-thiophen-3-yl]-ethylidene-hydrazinothiocarbonyl}-piperidine-4-carboxylic acid] | 5.66 nM |
| CC(=NNC(=S)N1CCC(C(=O)O)CC1)c1csc(-c2cccc(Cl)c2)c1O [Synthetic Example 15, 1-{1-[5-(3-chlorophenyl)-4-hydroxythiophen-3-yl]-ethylidene-hydrazinothiocarbonyl}-piperidine-4-carboxylic acid] | 5.94 nM |
| CC(=NNC(=S)N1CCC(C(=O)O)CC1)c1nn(C)c(-c2ccc(C(F)(F)F)cc2)c1O [Synthetic Example 16, 1-{1-[4-hydroxy-1-methyl-5-(4-trifluoromethylphenyl)-1H-pyrazol-3-yl]-ethylidene-hydrazinothiocarbonyl}-piperidine-4-carboxylic acid] | 8.09 nM |
| CC(=NNC(=S)N1CCC(C(=O)O)CC1)c1nn(C)c(-c2ccc(Cl)c(Cl)c2)c1O [Synthetic Example 17, 1-{1-[5-(3,4-dichlorophenyl)-4-hydroxy-1-methyl-1H-pyrazol-3-yl]-ethylidene-hydrazinothiocarbonyl}-piperidine-4-carboxylic acid] | 16.6 nM |
| CC(=NNC(=S)N1CCCC(C(=O)O)C1)c1csc(-c2ccc(Cl)c(Cl)c2)c1O (centres unmarked) [Synthetic Example 18, 1-{1-[5-(3,4-dichlorophenyl)-4-hydroxythiophen-3-yl]-ethylidene-hydrazinothiocarbonyl}-piperidine-3-carboxylic acid] | 46.6 nM |
| CCN(CC)C(=O)C1CCN(C(=S)NN=C(C)c2csc(-c3ccc(Cl)c(Cl)c3)c2O)CC1 [Synthetic Example 19, 1-{1-[5-(3,4-dichlorophenyl)-4-hydroxythiophen-3-yl]-ethylidene-hydrazinothiocarbonyl}-piperidine-4-carboxylic acid diethylamide] | 49.3 nM |
| CC(=NNC(=S)N1CCC(O)CC1)c1csc(-c2ccc(Cl)c(Cl)c2)c1O [Synthetic Example 20, 1-{1-[5-(3,4-dichlorophenyl)-4-hydroxythiophen-3-yl]-ethylidene-hydrazinothiocarbonyl}-piperidin-4-ol] | 6.98 nM |
| CC(=NNC(=S)N1CCCC(O)C1)c1csc(-c2ccc(Cl)c(Cl)c2)c1O (centres unmarked) [Synthetic Example 21, 1-{1-[5-(3,4-dichlorophenyl)-4-hydroxythiophen-3-yl]-ethylidene-hydrazinothiocarbonyl}-piperidin-3-ol] | 51.8 nM |
| CC(=NNC(=S)N1CCC(CO)CC1)c1csc(-c2ccc(Cl)c(Cl)c2)c1O [Synthetic Example 22, 1-{1-[5-(3,4-dichlorophenyl)-4-hydroxythiophen-3-yl]-ethylidene-hydrazinothiocarbonyl}-piperidine-4-methanol] | 45.8 nM |
| COCCCNC(=S)NN=C(C)c1csc(-c2ccc(Cl)c(Cl)c2)c1O [Synthetic Example 23, 1-(2-{1-[5-(3,4-dichlorophenyl)-4-hydroxythiophen-3-yl]-ethylidene}-hydrazinocarbonothioyl)amino-3-methoxypropane] | 76.3 nM |

Same assay, conditions: concluded from UT7/EPO-mpl versus UT7/EPO proliferation (FIG. 1, FIG. 2)

| Structure (SMILES) | selectivity of action on the TPO receptor |
| --- | --- |
| CC(=NNC(=S)NCC(=O)O)c1csc(-c2ccc(Cl)c(Cl)c2)c1O [Synthetic Example 4, 2-[(2-{1-[5-(3,4-dichlorophenyl)-4-hydroxythiophen-3-yl]-etylidene}-hydrazinocarbonothioyl)amino]acetic acid] | acts on the TPO receptor selectively as an activator |

What follows are compounds tested on UT7/EPO cells (assay: Proliferation of mother cell line UT7/EPO expressing no TPO receptor (WST-8)). Conditions: FIG. 2, 4 days incubation.
Type: cell-based, human
Procedure: as §1
as §2, with “A 10-μl aliquot of 5 mM WST-8 reagent solution was added to each well of the tissue culture plate, and the plate was incubated at 37° C. for 4 h.” left out

| Structure (SMILES) | effect on proliferation of UT7/EPO, the mother cell line |
| --- | --- |
| CC(=NNC(=S)NCC(=O)O)c1csc(-c2ccc(Cl)c(Cl)c2)c1O [Synthetic Example 4, 2-[(2-{1-[5-(3,4-dichlorophenyl)-4-hydroxythiophen-3-yl]-etylidene}-hydrazinocarbonothioyl)amino]acetic acid] | no effect |
